Data reported in ChEMBL document CHEMBL1201862, “PubChem BioAssay data set” (2004).
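In this assay, cells in 96-well plates receive the compound at five concentrations for 48 hours. Endpoints are linearly interpolated between the surrounding concentrations. GI50 is the concentration that inhibits growth by half.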 Calls of active or inactive are those of the source. No stated cut-off is given here; in the data, active = GI50 up to about 1.1 µM and inactive = higher.

Assays:
Assay in all cases: growth of human tumour cells (NCI), 48 h
786-0 = test system: 786-0
A498 = test system: A498
A549 = test system: A549
ACHN = test system: ACHN
BT-549 = test system: BT-549
CAKI-1 = test system: CAKI-1
CCRF-CEM = test system: CCRF-CEM
COLO 205 = test system: COLO 205
DU-145 = test system: DU-145
EKVX = test system: EKVX
HCC 2998 = test system: HCC 2998
HCT-116 = test system: HCT-116
HCT-15 = test system: HCT-15
HL-60 = test system: HL-60
HOP-62 = test system: HOP-62
HOP-92 = test system: HOP-92
HT-29 = test system: HT-29
Hs-578T = test system: Hs-578T
IGROV-1 = test system: IGROV-1
K562 = test system: K562
KM12 = test system: KM12
LOX IMVI = test system: LOX IMVI
M14 = test system: M14
MCF7 = test system: MCF7
MDA-MB-231 = test system: MDA-MB-231
MDA-MB-435 = test system: MDA-MB-435
MDA-N = test system: MDA-N
Malme-3M = test system: Malme-3M
NCI-H226 = test system: NCI-H226
NCI-H23 = test system: NCI-H23
NCI-H460 = test system: NCI-H460
NCI-H522 = test system: NCI-H522
NCI/ADR-RES = test system: NCI/ADR-RES
OVCAR-3 = test system: OVCAR-3
OVCAR-4 = test system: OVCAR-4
OVCAR-5 = test system: OVCAR-5
OVCAR-8 = test system: OVCAR-8
PC-3 = test system: PC-3
RPMI-8226 = test system: RPMI-8226
RXF 393 = test system: RXF 393
SF-268 = test system: SF-268
SF-295 = test system: SF-295
SK-MEL-28 = test system: SK-MEL-28
SK-MEL-2 = test system: SK-MEL-2
SK-MEL-5 = test system: SK-MEL-5
SK-OV-3 = test system: SK-OV-3
SN12C = test system: SN12C
SNB-19 = test system: SNB-19
SNB-75 = test system: SNB-75
SR = test system: SR
SW-620 = test system: SW-620
T47D = test system: T47D
TK-10 = test system: TK-10
U-251 = test system: U-251
UACC-257 = test system: UACC-257
UACC-62 = test system: UACC-62
UO-31 = test system: UO-31
MOLT-4 = test system: MOLT-4
SF-539 = test system: SF-539

Measured: GI50

Cc1cc(CN2CCCCC2)c(O)c(CN2CCCCC2)c1
> 100 µM: HCT-15
inactive: 786-0 > 100 µM | A498 > 100 µM | A549 > 100 µM | ACHN > 100 µM | BT-549 > 100 µM | CAKI-1 > 100 µM | CCRF-CEM 41.3 µM | COLO 205 > 100 µM | DU-145 > 100 µM | EKVX > 100 µM | HCC 2998 > 100 µM | HCT-116 > 100 µM | HL-60 > 100 µM | HOP-62 > 100 µM | HOP-92 > 100 µM | HT-29 > 100 µM | Hs-578T > 100 µM | IGROV-1 > 100 µM | K562 > 100 µM | KM12 > 100 µM | LOX IMVI > 100 µM | M14 > 100 µM | MCF7 > 100 µM | MDA-MB-231 > 100 µM | MDA-MB-435 > 100 µM | MDA-N > 100 µM | Malme-3M > 100 µM | NCI-H226 > 100 µM | NCI-H23 > 100 µM | NCI-H460 > 100 µM | NCI-H522 > 100 µM | NCI/ADR-RES > 100 µM | OVCAR-3 > 100 µM | OVCAR-4 > 100 µM | OVCAR-5 > 100 µM | OVCAR-8 > 100 µM | PC-3 > 100 µM | RPMI-8226 22.8 µM | RXF 393 > 100 µM | SF-268 > 100 µM | SF-295 > 100 µM | SK-MEL-28 > 100 µM | SK-MEL-2 > 100 µM | SK-MEL-5 > 100 µM | SK-OV-3 > 100 µM | SN12C > 100 µM | SNB-19 > 100 µM | SNB-75 > 100 µM | SR > 100 µM | SW-620 > 100 µM | T47D > 100 µM | TK-10 > 100 µM | U-251 > 100 µM | UACC-257 > 100 µM | UACC-62 > 100 µM | UO-31 > 100 µM

N=c1n(C(=O)N2CCCC2)c2cc(Cl)ccc2n1C1=NCCN1
40.6 µM: HCT-15
inactive: 786-0 54 µM | A498 > 100 µM | A549 > 100 µM | ACHN 43.7 µM | BT-549 60.1 µM | CAKI-1 43.2 µM | CCRF-CEM 41.7 µM | COLO 205 > 100 µM | DU-145 50 µM | EKVX > 100 µM | HCC 2998 > 100 µM | HCT-116 55.5 µM | HL-60 38.8 µM | HOP-62 > 100 µM | HOP-92 15.2 µM | HT-29 75.7 µM | Hs-578T > 100 µM | IGROV-1 73.3 µM | K562 40.6 µM | KM12 > 100 µM | LOX IMVI 28.3 µM | M14 59.6 µM | MCF7 35.8 µM | MDA-MB-231 67.9 µM | MDA-MB-435 52 µM | MDA-N 61.8 µM | MOLT-4 41.7 µM | Malme-3M 99.8 µM | NCI-H226 > 100 µM | NCI-H460 > 100 µM | NCI-H522 38.6 µM | NCI/ADR-RES 93.5 µM | OVCAR-3 80.5 µM | OVCAR-4 > 100 µM | OVCAR-5 > 100 µM | OVCAR-8 88.3 µM | PC-3 86.9 µM | RPMI-8226 15.7 µM | RXF 393 82.4 µM | SF-268 > 100 µM | SF-295 > 100 µM | SF-539 55.2 µM | SK-MEL-28 95.3 µM | SK-MEL-2 33.1 µM | SK-MEL-5 83 µM | SK-OV-3 > 100 µM | SN12C 70.5 µM | SNB-19 > 100 µM | SR 38.2 µM | SW-620 52.6 µM | T47D 24.2 µM | TK-10 86.5 µM | U-251 83.2 µM | UACC-257 > 100 µM | UACC-62 > 100 µM

C[C@]12[C@@H]3CC[C@H]1[C@@H](O)C(=O)N2CC3
inactive: 786-0 > 100 µM | A498 > 100 µM | A549 > 100 µM | ACHN > 100 µM | BT-549 > 100 µM | CAKI-1 > 100 µM | CCRF-CEM > 100 µM | COLO 205 > 100 µM | DU-145 > 100 µM | EKVX > 100 µM | HCC 2998 > 100 µM | HCT-116 > 100 µM | HL-60 > 100 µM | HOP-62 > 100 µM | HOP-92 > 100 µM | HT-29 > 100 µM | Hs-578T > 100 µM | IGROV-1 > 100 µM | K562 > 100 µM | KM12 > 100 µM | LOX IMVI > 100 µM | M14 > 100 µM | MCF7 > 100 µM | MDA-MB-231 > 100 µM | MDA-MB-435 > 100 µM | MDA-N > 100 µM | MOLT-4 > 100 µM | Malme-3M > 100 µM | NCI-H23 > 100 µM | NCI-H460 > 100 µM | NCI-H522 > 100 µM | NCI/ADR-RES > 100 µM | OVCAR-4 > 100 µM | OVCAR-5 > 100 µM | OVCAR-8 > 100 µM | PC-3 > 100 µM | RPMI-8226 > 100 µM | RXF 393 > 100 µM | SF-268 > 100 µM | SF-295 > 100 µM | SK-MEL-28 > 100 µM | SK-MEL-2 > 100 µM | SK-MEL-5 > 100 µM | SK-OV-3 > 100 µM | SN12C > 100 µM | SNB-19 > 100 µM | SNB-75 > 100 µM | SR > 100 µM | SW-620 > 100 µM | T47D > 100 µM | TK-10 > 100 µM | U-251 > 100 µM | UACC-257 > 100 µM | UACC-62 > 100 µM | UO-31 > 100 µM
> 100 µM: HCT-15

COC1Cc2c(C)c(OC(C)=O)c3cccnc3c2O1 (stereo not drawn)
10.4 µM: HCT-15
inactive: 786-0 18.2 µM | A498 > 100 µM | A549 17.3 µM | ACHN 7.11 µM | BT-549 19.7 µM | CAKI-1 > 100 µM | CCRF-CEM 10.7 µM | COLO 205 91.8 µM | DU-145 17.3 µM | EKVX 15.4 µM | HCC 2998 > 100 µM | HCT-116 34.9 µM | HL-60 6.79 µM | HOP-62 25.1 µM | HOP-92 18.6 µM | HT-29 43.8 µM | Hs-578T 30.3 µM | IGROV-1 13.3 µM | K562 22.2 µM | KM12 36.6 µM | M14 14.5 µM | MCF7 18.9 µM | MDA-MB-231 > 100 µM | MDA-MB-435 17.6 µM | MDA-N 20.8 µM | MOLT-4 13.8 µM | Malme-3M 13.8 µM | NCI-H226 39 µM | NCI-H23 20.6 µM | NCI-H460 25.4 µM | NCI-H522 2.75 µM | NCI/ADR-RES 17.6 µM | OVCAR-3 14.5 µM | OVCAR-4 16 µM | OVCAR-5 18.2 µM | OVCAR-8 15.1 µM | PC-3 36.7 µM | RPMI-8226 28.6 µM | RXF 393 14.9 µM | SF-268 16 µM | SF-295 32.4 µM | SF-539 48.2 µM | SK-MEL-28 24.7 µM | SK-MEL-2 13.9 µM | SK-MEL-5 15.3 µM | SK-OV-3 26.9 µM | SN12C 18.5 µM | SNB-19 > 100 µM | SNB-75 17.4 µM | SR 15.6 µM | SW-620 13.5 µM | T47D 24.1 µM | TK-10 > 100 µM | U-251 37.2 µM | UACC-257 16 µM | UACC-62 14.7 µM | UO-31 13.9 µM

C[C@H](OC(=O)/C=C/c1ccc(O)c(O)c1)[C@H](C)OC(=O)/C=C/c1ccc(O)c(O)c1
inactive: 786-0 4.73 µM | A498 17.1 µM | A549 7.94 µM | ACHN 6.11 µM | BT-549 10.4 µM | CAKI-1 7.89 µM | COLO 205 20.3 µM | DU-145 11.6 µM | EKVX 14.7 µM | HCC 2998 11.5 µM | HCT-116 3.72 µM | HOP-62 11.1 µM | HOP-92 15 µM | HT-29 12.2 µM | Hs-578T 6.65 µM | IGROV-1 5.2 µM | K562 4.61 µM | KM12 5.25 µM | LOX IMVI 3.35 µM | M14 6.19 µM | MCF7 6.28 µM | MDA-MB-231 10.9 µM | MDA-MB-435 4.84 µM | MDA-N 4.45 µM | MOLT-4 2.49 µM | Malme-3M 14.7 µM | NCI-H23 4.29 µM | NCI-H460 4.11 µM | NCI-H522 6.98 µM | NCI/ADR-RES 12.2 µM | OVCAR-3 4.24 µM | OVCAR-4 5.09 µM | OVCAR-5 14 µM | OVCAR-8 6.15 µM | PC-3 13.1 µM | RPMI-8226 9.59 µM | RXF 393 6.87 µM | SF-268 7.43 µM | SF-295 6.27 µM | SF-539 9.48 µM | SK-MEL-28 11.5 µM | SK-MEL-2 10.4 µM | SK-MEL-5 6.12 µM | SK-OV-3 16.3 µM | SN12C 11.5 µM | SNB-19 7.93 µM | SNB-75 15.7 µM | SR 8.18 µM | SW-620 3.93 µM | T47D 4.41 µM | TK-10 10 µM | U-251 10.8 µM | UACC-257 10.1 µM | UACC-62 2.93 µM | UO-31 4.8 µM
4.71 µM: HCT-15
